# Assay results: patent US10800807B2, “TGR5 modulators and methods of use thereof” (Intercept Pharmaceuticals, Inc., priority 2015, dated 2020)
# Substitutions are numbered along the chain they refer to. Like-named read-outs stand apart in the source and are kept apart here.
# Tests used:
# mTGR5 = target: T1, mTGR5 (Mus musculus, UniProt Q80SS6); assay: TGR5 activity: cAMP in mTGR5 CHO-Pi10 clone 4 cells; assay type: cell-based; conditions: for Emax: 0.5 h, read-out: (mTGR5 CHO) Efficacy
# T1 construct: expressed in transfected cells; host or cells: CHO-Pi10 clone 4
# T1 sequence (Q80SS6 1-329): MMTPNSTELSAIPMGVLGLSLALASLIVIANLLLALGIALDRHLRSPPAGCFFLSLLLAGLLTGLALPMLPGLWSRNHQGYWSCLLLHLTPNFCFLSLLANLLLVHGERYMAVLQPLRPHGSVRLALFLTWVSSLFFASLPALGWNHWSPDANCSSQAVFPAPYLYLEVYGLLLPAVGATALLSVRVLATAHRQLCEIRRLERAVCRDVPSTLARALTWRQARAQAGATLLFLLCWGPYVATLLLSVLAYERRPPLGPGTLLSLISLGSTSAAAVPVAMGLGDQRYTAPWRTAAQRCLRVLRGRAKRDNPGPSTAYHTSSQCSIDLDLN
# [1] = Critical micellar concentration (surface tension / dye solubilization); assay type: physicochemical; conditions: for CMC: BA sodium salts in 0.1 M NaCl, 25° C.; for STCMC: surface tension at CMC
# Description: In the first method, the surface tension was performed by maximum bubble-pressure method using a Sensadyne 6000 tensiometer (Chem-Dyne Research Corp., Milwaukee, Wis.). The surface tension of aqueous solutions at various concentrations (range 0.1-100 mM) of the BA sodium salts in 0.1 M NaCl was measured at 25° C. The surface tension values were plotted against the logarithm of the bile salt concentration; the regression lines corresponding to the two parts of the curve (monomeric and micellar phases) were calculated using the method of least squares. The critical micellar concentration (CMC) value (mM) was obtained by the intersection of the two lines.
# The second method is based on the fact that some dyes, specifically Orange OT ([…]), are almost insoluble in water but dissolve in solutions with micellar aggregates that incorporate them; thus, the intensity of color of the solution increases with bile salt concentration (after CMC achievement). The amount of dye solubilized in relation to bile salt concentration was determined spectrophotometrically.
# For each bile acid, various solution at different concentrations, between 50 mM and 0.1 mM with appropriate dilutions, were incubated under stirring at room temperature for 3 days with an excess of Orange OT. Then all the solutions were centrifuged and filtered through a 0.22 μm Millipore fiiter (Millipore Corp., Bedford, Mass.).
# TGR5 [2] = target: T2, TGR5 (Homo sapiens, UniProt Q8TDU6); assay: TGR5 activity: intracellular cAMP levels, NCI-H716 cells (HTR-FRET); assay type: cell-based; parameters: endogenous in cells; host or cells: NCI-H716; conditions: for Emax: read-out: TGR5 (NCI-H716) Efficacy; for EC50: cAMP
# T2 sequence (Q8TDU6 1-330): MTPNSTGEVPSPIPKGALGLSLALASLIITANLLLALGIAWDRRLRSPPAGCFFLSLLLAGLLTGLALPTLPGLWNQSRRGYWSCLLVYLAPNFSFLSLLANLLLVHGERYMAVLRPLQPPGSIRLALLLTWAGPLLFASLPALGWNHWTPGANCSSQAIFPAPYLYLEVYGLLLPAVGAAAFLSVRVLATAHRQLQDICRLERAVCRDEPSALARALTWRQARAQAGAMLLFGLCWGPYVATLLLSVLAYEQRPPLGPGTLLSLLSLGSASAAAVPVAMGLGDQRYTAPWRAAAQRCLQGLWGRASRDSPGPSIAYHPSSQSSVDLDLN
# Description: Activation of TGR5 was assessed by measuring the level of cAMP using an HTR-FRET assay. Thus, NCI-H716 cells were cultured on 96-well plates coated with Matrigel (Corning, USA) (0.75 mg/ml) in DMEM supplemented with 10% FCS, 100 units/ml penicillin, and 100 μg/ml streptomycin sulphate. […] The level of intracellular cAMP was determined with Lance kit. Z′ factor was used to validate assays.
# [3] = Lipophilicity, 1-octanol/water partition coefficient (shake-flask); assay type: physicochemical; conditions: pH 8.00, ionized BA
# Description: The experiments were carried out on 1 mM initial bile salt solution buffered at pH 8.00 with 0.1 M potassium phosphate buffer to ensure complete ionization of the BA. BA concentration in the water phase before and after partition in 1-octanol was measured by HPLC-ESMS/MS as reported below.
# [4] = target: T3, mouse glutathione transferase-tagged FXR-LBD (Mus musculus, UniProt Q60641); assay: FXR AlphaScreen coactivator recruitment assay (mouse); assay type: biochemical; conditions: mouse FXR-LBD, value in parentheses; for EC50: read-out: (mFXR) EC50; for Emax: read-out: (mFXR) Efficacy
# T3 construct: mouse glutathione transferase-tagged FXR-LBD (generated in-house); made in house
# T3 sequence (Q60641 264-488 limits assumed): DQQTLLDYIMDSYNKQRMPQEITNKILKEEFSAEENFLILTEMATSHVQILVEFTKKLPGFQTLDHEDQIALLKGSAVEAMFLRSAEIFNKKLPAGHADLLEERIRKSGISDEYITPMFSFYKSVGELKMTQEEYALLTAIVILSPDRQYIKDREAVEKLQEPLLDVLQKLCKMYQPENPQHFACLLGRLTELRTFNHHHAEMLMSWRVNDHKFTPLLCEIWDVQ
# Description: (§1) Activation of the FXR receptor was determined using a recruitment coactivator assay, namely AlphaScreen technology. The assays were performed using human glutathione transferase-tagged FXR-LBD (Life Technologies, USA) and mouse glutathione transferase-tagged FXR-LBD (generated in-house). Briefly, assays were conducted in white, low-volume, 384-well OptiPlate using a final volume of 25 μL containing 10 nM glutathione transferase-tagged FXR-LBD protein and 30 nM biotinylated Src-1 peptide. The stimulation was carried out with different BA concentrations for 30 minutes at 25° C. […] Dose-response curves were performed in triplicate and Z′ factor was used to validate the robustness of the assay.
# [5] = target: T4, human glutathione transferase-tagged FXR-LBD (Homo sapiens, UniProt Q96RI1); assay: FXR AlphaScreen coactivator recruitment assay (human); assay type: biochemical; parameters: Emax: dose or concentration left out as unconfirmed; conditions: for EC50: human FXR-LBD, AlphaScreen, read-out: hFXR EC50; for Emax: read-out: hFXR Efficacy;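 for hFXR Efficacy: CDCA at 50 µM taken as 100%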
# T4 construct: human glutathione transferase-tagged FXR-LBD (Life Technologies, USA); purchased Life Technologies, USA
# T4 sequence (Q96RI1 262-486 limits assumed): T3 sequence (Q60641 264-488 limits assumed) with D7H, Y8F, S46N, I50V, A95S, A98S, K107N, V125I, M174I, Y175H
# Description: as §1
# bovine serum albumin = bovine serum albumin (Bos taurus, UniProt P02769); assay: Albumin binding by equilibrium dialysis; assay type: in vitro ADME; conditions: 5% bovine serum albumin saline solution, 25° C.
# Description: BA was dissolved at a concentration of […] in 5% bovine serum albumin saline solution and left to stand for 24 hours at 25° C. Two milliliters of this solution was dialyzed in cellulose sacs with a molecular weight cut-off of 12-14 kDa (Spectra/Por; Spectrum Medical Industries Inc., Rancho Dominguez, Calif.) against 25 ml of saline solution. The system was equilibrated by mechanical shaking for 72 hours at 25° C. BA concentrations in the starting solution and in the dialyzed solution were determined by HPLC-ES-MS/MS as reported below.
# [6] = Critical micellar concentration (surface tension / dye solubilization); assay type: physicochemical
# TGR5 [7] = target: T2, TGR5; assay: TGR5 activity: cAMP in hTGR5 CHO-k1 cells; assay type: cell-based; parameters: expressed in transfected cells; host or cells: CHO-k1; conditions: for Emax: 0.5 h, read-out: hTGR5 CHO Efficacy; for EC50: cAMP
# Water solubility = assay type: physicochemical; conditions: 0.1 M HCl, pH 1.00, 25° C., read-out: Ws
# Description: BA were suspended in 100 ml of 0.1 M HCl, pH 1.00, and the saturated solutions were transferred to a thermostat-equipped water bath maintained at 25° C. After incubation for 1 week, the solutions were filtered on a Millipore filter ([…]), and the concentration of BA was measured by HPLC-ESMS/MS as reported below.
# [8] = mTGR5 CHO cells, value in parentheses
# [9] = simulated gastric fluid, thermodynamic from solid
# [10] = 1 h, NCI-H716 cells, Ref. LCA 100% at 10 μM
# [11] = hTGR5 CHO cells, Ref. LCA 100% at 10 μM
# bovine serum albumin, sequence (P02769 25-607): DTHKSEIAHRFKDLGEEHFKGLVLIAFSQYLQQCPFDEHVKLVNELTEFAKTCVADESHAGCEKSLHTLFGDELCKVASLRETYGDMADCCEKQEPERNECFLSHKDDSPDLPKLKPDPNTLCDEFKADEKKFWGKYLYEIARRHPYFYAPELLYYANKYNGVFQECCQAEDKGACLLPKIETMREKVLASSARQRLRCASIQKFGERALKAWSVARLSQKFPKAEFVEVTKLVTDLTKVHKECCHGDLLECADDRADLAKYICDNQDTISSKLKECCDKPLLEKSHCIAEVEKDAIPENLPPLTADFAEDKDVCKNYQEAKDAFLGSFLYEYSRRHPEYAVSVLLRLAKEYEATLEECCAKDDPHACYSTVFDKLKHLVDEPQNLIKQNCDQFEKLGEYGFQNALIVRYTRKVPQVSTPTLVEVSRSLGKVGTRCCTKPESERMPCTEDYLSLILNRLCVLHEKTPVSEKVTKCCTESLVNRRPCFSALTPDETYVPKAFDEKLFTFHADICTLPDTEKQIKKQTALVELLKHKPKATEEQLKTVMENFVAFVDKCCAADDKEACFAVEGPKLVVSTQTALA
Structure (SMILES),EC50 (mTGR5; [8]),CMC [1],EC50 (TGR5 [2]; NCI-H716 cells),LogPA− [3],EC50 [4],EC50 [5],Emax [5],Albumin binding (%) (bovine serum albumin),CMpH [6],EC50 (TGR5 [7]; hTGR5 CHO cells),pKa (pKa),solubility thermodynamic at 1 week (Water solubility; [9]),Emax (mTGR5; [8]),Emax (TGR5 [2]; [10]),Emax [4],Emax (TGR5 [7]; [11]),further results
"CC[C@H]1[C@@H](O)C2C3CC[C@H]([C@H](C)C[C@@H](CO)C(=O)O)[C@@]3(C)[C@@H](O)CC2[C@@]2(C)CC[C@@H](O)C[C@@H]12 (stereo partly drawn) [Compound 4, 3α,7α,12α-Trihydroxy-6α-ethyl-23(A)-hydroxymethyl-5β-cholan-24-oic acid]",1300 nM,5 mM,7500 ± 5000 nM,−0.2,> 150000 nM,80000 ± 30000 nM,20 ± 2%,55%,4.5,4650 ± 500 nM,4.36,3200 µM,,,,,"Emax (mTGR5; CHO): 102%; Emax (TGR5 [2]; NCI-H716, 1 h): 77 ± 10%; Emax (TGR5 [7]; CHO): 99 ± 1.4%"
"CC[C@H]1[C@@H](O)[C@@H]2[C@H](C[C@H](O)[C@]3(C)[C@@H]([C@H](C)C[C@H](F)C(=O)O)CC[C@@H]23)[C@@]2(C)CC[C@@H](O)C[C@@H]12 [Compound 8, 3α,7α,12α-Trihydroxy-6α-ethyl-23(S)-fluoro-5β-cholan-24-oate]",780 nM,6 mM,7000 ± 3000 nM,0.01,59500 nM,5600 ± 1000 nM,113 ± 3%,84%,3.6,500 ± 100 nM,2.82,971 µM,100%,97 ± 1.7%,47%,103 ± 2%,
"CC[C@H]1[C@@H](O)[C@@H]2[C@H](C[C@H](O)[C@]3(C)[C@@H]([C@H](C)C[C@@H](F)C(=O)O)CC[C@@H]23)[C@@]2(C)CC[C@@H](O)C[C@@H]12 [Compound 9, 3α,7α,12α-Trihydroxy-6α-ethyl-23(R)-fluoro-5β-cholan-24-oate]",1800 nM,6 mM,22000 ± 3000 nM,0.2,55000 nM,2900 ± 900 nM,147 ± 20%,89%,3.9,1400 ± 300 nM,2.82,469 µM,90%,75 ± 6%,127%,98 ± 2%,
"CC[C@H]1[C@@H](O)C2C3CC[C@H]([C@H](C)CC(F)(F)C(=O)O)[C@@]3(C)CCC2[C@@]2(C)CC[C@@H](O)C[C@@H]12 (stereo partly drawn) [Compound 10, 3α,7α-Dihydroxy-6α-ethyl-23,23-gemdifluoro-5β-cholan-24-oic acid]",600 nM,8.5 mM,1600 ± 200 nM,1.4,7100 nM,200 ± 40 nM,128 ± 4%,66%,3.7,340 ± 40 nM,1.1,16 µM,102%,125 ± 1%,143%,103 ± 1%,
"C[C@H](CCC(=O)NCC(=O)O)[C@H]1CC[C@H]2[C@@H]3[C@H](O)C[C@@H]4C[C@H](O)CC[C@]4(C)[C@H]3CC[C@]12C [GCDCA, reference compound]",,2 mM,,0.4,,,,85%,6.4,,3.9,,,,,,STCMC [1]: 45.2 Dyne/cm; solubility thermodynamic at 1 week (Water solubility): 7 µM
"C[C@H](CC(=O)O)[C@H]1CC[C@H]2[C@@H]3[C@H](O)C[C@@H]4C[C@H](O)CC[C@]4(C)[C@H]3CC[C@]12C [Nor-CDCA, 24-nor-CDCA, reference compound]",,20 mM,,0.5,,,,95%,7.9,,5,,,,,,solubility thermodynamic at 1 week (Water solubility): 23 µM
"CC[C@H]1[C@@H](O)C2C3CC[C@H]([C@H](C)CCC(=O)O)[C@@]3(C)CCC2[C@@]2(C)CC[C@@H](O)C[C@@H]12 (some centres unmarked) [Ref. Cmpd. B, reference compound]",,2.9 mM,,2.5,,,,96%,7.2,,5,9 µM,,,,,STCMC [1]: 48.8 Dyne/cm
